From US7094869B2, “Low molecular weight peptidomimetic growth hormone secretagogues” (Genentech, Inc., priority 1994, dated 2006)
pEC50: −log10 of the molar value. Read-outs that look alike come from different tables or passages of the source. Non-standard residues stand in square brackets, D forms with d. Residues, ends and D or L forms follow the SMILES beside them. ξ: configuration not given here. *: point of attachment. dNMe2Nal = CN[C@H](Cc1ccc2ccccc2c1)C(=O)O; 2Nal = N[C@@H](Cc1ccc2ccccc2c1)C(=O)O; d2Nal = N[C@H](Cc1ccc2ccccc2c1)C(=O)O; ξNMe2Nal = CNC(Cc1ccc2ccccc2c1)C(=O)O; Acetyl(4-pyridyl) = O=C(Cc1ccncc1)*; hPhe = N[C@@H](CCc1ccccc1)C(=O)O; Tic = O=C(O)[C@@H]1Cc2ccccc2CN1; Inp = O=C(O)C1CCNCC1; ξK = NCCCCC(N)C(=O)O; Ahx = NCCCCCC(=O)O; NHtBu = CC(C)(C)N*; Ava = NCCCCC(=O)O; GABA = NCCCC(=O)O

Key:
rat pituitary cells = rat pituitary cells (Rattus norvegicus, UniProt O08725); settings: GH release, 15 min incubation
Experimental: Pituitaries from ten rats were removed, the posterior pituitary discarded and the anterior pituitary placed in Hanks' Balanced Salt Solution (HBSS: without calcium chloride, w/o magnesium chloride, w/o magnesium sulfate; Gibco) containing 20 mM HEPES (Gibco) and 100 U/ml penicillin streptomycin (PS: JRH Biosciences). Under sterile conditions, pituitaries were rinsed twice then minced into small fragments with a razor blade. […] After the incubation, fragments were triturated to yield small clumps and single cells. The cells were centrifuged 1000× g for 5 min, resuspended, counted and plated at a final cell concentration of 100,000 cells/ml. Incubation media was DME low glucose media w/NaHCO3 (Gibco) containing 20 mM hepes, 100 U/ml PS and 10% FBS (Hyclone A-111-L). Cells were plated at 0.5 ml per well in 48 well plates (Falcon) and incubated at 37° C. in 5% C02 for three days. For challenges to determine release of other pituitary hormones cells were plated at 200,000 cells per ml with 2 ml per well of a Swell plate (Corning). Challenge: A (inip)bbFK-NH2 stock (or other GHRP) concentration of 1 mM was made in DMSO and diluted with warmed media approximately 30 min prior to use. The highest concentration of DMSO in media was 0.1%. Stock solutions (1 mM) of rat GHRH, somatostatin (Sigma) and GHRP antagonist HwkWfK were made fresh in media and diluted appropriately. The media used in all challenges and washing steps was DME low glucose with 20 mM Hepes, 100 U/ml PS, 10% FBS. Media was warmed to 37° C. and gassed by placing it into the incubator prior to challenge. On day three, the media was discarded and fresh media (approximately 1 ml) added for the first of three washes. After the last wash, the plate was placed back in the incubator for a 15 min pre-incubation. Then cells were washed 2× (with warmed and gassed media) and fresh 0.5 ml media were added for the second 15 min. pre-incubation. After the second pre-incubation cells were washed 2× as above and 0.5 ml of control and test solutions were added for a final 15 min incubation. After this incubation, the media were removed for subsequent GH ELISA. GH ELISA: A two-site ELISA was used to determine rat GH concentration in the media. […] After blocking and washing, standard (rat GH reference preparation: Parlow) and challenge media is diluted 1:20 prior to GH assay were added for a 1 hr room temperature incubation. STATISTICS: The mean for each group was determined and analyzed by one-way analysis of variance with a post-hoc Student-Newman-Keuls. Significance is defined as P<0.05. The EC50 was calculated using a 4-parameter curve-fit program (Kaleidagraph). Three to four independent EC50s were used to derive the mean and SEM. RIA of pituitary hormones: LH, FSH, TSH, and Prolactin were determined with commercially available kits from Amersham, and ACTH levels were determined by a RIA kit from ICN. CALCIUM FLUX EXPERIMENT: Pituitary cells were plated on fibronectin (Collaborative Research) coated two-chambered slide wells (Nunc). After four days in monolayer culture cells were rinsed three times with HBSS (Gibco) in 1% BSA and 15 mM HEPES and then incubated for 30 min at 37° C. with 5 μM Indo-1 AM (Molecular Probes, Eugene) in HBSS also containing 1% pluronic F127 (Molecular Probes). The cells were rinsed once and fresh media added for RT incubation. […] C^++ flux was imaged with a Meridian ACAS 570 using stage scanning at 21 second intervals.

growth hormone secretion = test: GHRP induced growth hormone secretion, intravenous administration (Rat IV); assay type: in vivo; settings: serum GH 10 min after injection; for RAT IV ED50: iv injection
Experimental: Immature weanling female Sprague Dawley rats were purchased from Charles River Labs (Portage, […].) and group housed with water and food available ad libitum. When the rats were 24-30 days old (weighing 50-90 g) they were anesthetized with pentobarbitone (4 mg in 0.5 ml, approximately 60 mg/kg) given by intraperitoneal injection. The rats were then placed briefly on a heated pad, to distend their tail veins, and given an intravenous tail vein injection of the peptides 20 minutes after receiving the anesthetic. The intravenous injection was of 0.1 ml using a 1 ml syringe. The injections contained graded doses of peptides or the vehicle (vehicle for all peptides given intravenously was a buffer of 20 mM sodium acetate, 45 g/l mannitol, pH 5.0). Ten minutes after the intravenous injection blood was taken by cardiac puncture, using a 3 ml syringe, and the rats were then sacrificed.
The blood was then clotted on ice, centrifuged, serum decanted and frozen for subsequent analysis using the rat GH ELISA described elsewhere in the application. For the rat GH ELISA the serum was diluted 1:50 or 1:250, depending on the expected serum GH concentrations achieved, and assayed in duplicate.

[1] = read-out: PIT Cell EC50, Table IV, formula III compounds
[2] = read-out: PIT Cell EC50, Table III, formula IV compounds
[3] = read-out: PIT Cell EC50, Table V, formula II compounds

Chain of rat pituitary cells (O08725 whole entry, the tested form may be a part): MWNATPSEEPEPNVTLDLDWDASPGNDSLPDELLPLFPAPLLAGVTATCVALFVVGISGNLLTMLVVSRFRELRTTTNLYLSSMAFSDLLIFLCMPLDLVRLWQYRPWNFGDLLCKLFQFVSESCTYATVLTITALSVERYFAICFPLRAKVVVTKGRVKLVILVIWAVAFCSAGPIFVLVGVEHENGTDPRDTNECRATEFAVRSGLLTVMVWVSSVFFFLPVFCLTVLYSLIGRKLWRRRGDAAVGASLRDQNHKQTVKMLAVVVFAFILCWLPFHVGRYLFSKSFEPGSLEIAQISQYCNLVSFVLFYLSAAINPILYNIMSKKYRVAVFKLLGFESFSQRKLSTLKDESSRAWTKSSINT

Compound	pEC50 (rat pituitary cells; [2])	RAT IV ED50 (growth hormone secretion; Table III) [µg]	other results
COC(=O)[C@H](Cc1ccccc1)NC(=O)[C@@H](Cc1ccc2ccccc2c1)NC(=O)[C@@H](Cc1ccc2ccccc2c1)NC(=O)C1CCNCC1 [(inip) b b F Me ester] (H-[Inp][d2Nal][d2Nal]F-OMe)			pEC50 (rat pituitary cells; [1]): 8.55; RAT IV ED50 (growth hormone secretion; Table IV): 2 µg
NCCCCC(=O)N[C@H](Cc1ccc2ccccc2c1)C(=O)N[C@H](Cc1ccc2ccccc2c1)C(=O)N[C@@H](CCc1ccccc1)C(=O)N[C@@H](CCCCN)C(N)=O [(Ava) b b hF K amide] (H-[Ava][d2Nal][d2Nal][hPhe]K-NH2)	8.30	50	
NCCCCC(=O)N[C@H](Cc1ccc2ccccc2c1)C(=O)N[C@H](Cc1ccc2ccccc2c1)C(=O)N[C@@H](Cc1ccccc1)C(=O)N[C@@H](CCCCN)C(N)=O [(Ava) b b F K amide] (H-[Ava][d2Nal][d2Nal]FK-NH2)	8.55	2.6	
C[C@H](NC(=O)[C@@H](Cc1ccc2ccccc2c1)NC(=O)[C@@H](C)N)C(=O)N[C@@H](Cc1c[nH]c2ccccc12)C(=O)N[C@H](Cc1ccccc1)C(=O)N[C@@H](CCCCN)C(N)=O [GHRP 2, D Ala-D βNal-Ala-Trp-D Phe-Lys-NH2, reference compound] (H-[dA][d2Nal]AW[dF]K-NH2)			pEC50 (rat pituitary cells; read-out: “Pit” Cell EC50, Table II, prior art compounds): 9.00; Rat IV ED50 (growth hormone secretion; Table II, iv tail vein injection, anesthetized weanling female rats): 0.35 µg
CN(C(=O)CCCCN)C(Cc1ccc2ccccc2c1)C(=O)N[C@H](Cc1ccc2ccccc2c1)C(=O)N[C@@H](Cc1ccccc1)C(=O)NC(CCCCN)C(N)=O (stereo partly drawn) [(Ava) nmb b F K amide, (5-aminovaleryl)-(N-Me-DβNal)-DβNal-Phe-Lys-amide] (H-[Ava][ξNMe2Nal][d2Nal]F[ξK]-NH2)	8.74	0.4	
NCCCCNC(=O)[C@H](Cc1ccc2ccccc2c1)NC(=O)[C@H](Cc1ccc2ccccc2c1)NC(=O)[C@@H](Cc1ccccc1)NC(=O)CCCCN [(Ava) f B B bam, (5-aminovaleryl)-DPhe-βNal-βNal-[N-(4-aminobutyl)] amide]			pEC50 (rat pituitary cells; read-out: PIT Cell EC50, Table VI, retroinverso compounds of formula V): 7.66; RAT IV ED50 (growth hormone secretion; Table VI): 100 µg
CNC(=O)[C@H](Cc1ccccc1)NC(=O)[C@@H](Cc1ccc2ccccc2c1)NC(=O)[C@@H](Cc1ccc2ccccc2c1)NC(=O)C1CCNCC1 [(inip) b b F mam] (H-[Inp][d2Nal][d2Nal]F-NHMe)	8.70	2	
CN(C(=O)C1CCNCC1)C(Cc1ccc2ccccc2c1)C(=O)N[C@H](Cc1ccc2ccccc2c1)C(=O)N[C@@H](Cc1ccccc1)C(=O)NC(CCCCN)C(N)=O (stereo partly drawn) [(inip) nmb b F K amide, (inip)-(N-Me-DβNal)-DβNal-Phe-Lys-amide] (H-[Inp][ξNMe2Nal][d2Nal]F[ξK]-NH2)	9.57	0.4	
CC(C)(C)NC(=O)[C@H](Cc1ccccc1)NC(=O)[C@@H](Cc1ccc2ccccc2c1)NC(=O)[C@@H](Cc1ccc2ccccc2c1)NC(=O)C1CCNCC1 [(inip) b b F tbm] (H-[Inp][d2Nal][d2Nal]F-NHtBu)	8.00	10	
NC(=O)[C@H](Cc1ccc2ccccc2c1)NC(=O)[C@@H](Cc1ccc2ccccc2c1)NC(=O)[C@@H](Cc1ccc2ccccc2c1)NC(=O)C1CCNCC1 [(inip) b b B amide] (H-[Inp][d2Nal][d2Nal][2Nal]-NH2)			pEC50 (rat pituitary cells; [1]): 10.00; RAT IV ED50 (growth hormone secretion; Table IV): 50 µg
O=C(N[C@H](Cc1ccc2ccccc2c1)C(=O)N[C@H](Cc1ccc2ccccc2c1)C(=O)N1CCNCC1)C1CCNCC1 [(inip) b b ppz]			pEC50 (rat pituitary cells; [1]): 8.00; RAT IV ED50 (growth hormone secretion; Table IV): 10 µg
CN[C@H](Cc1ccc2ccccc2c1)C(=O)N[C@H](Cc1ccc2ccccc2c1)C(=O)N[C@@H](Cc1ccc(O)cc1)C(=O)N[C@@H](CCCCN)C(N)=O [nmb b Y K amide] (H-[dNMe2Nal][d2Nal]YK-NH2)		500	
CN(C)C(=O)C(Cc1ccccc1)NC(=O)[C@@H](Cc1ccc2ccccc2c1)NC(=O)[C@@H](Cc1ccc2ccccc2c1)NC(=O)C1CCNCC1 (single isomer, unassigned) [(inip) b b F dam]		10	
NCCCCCC(=O)N[C@H](Cc1ccc2ccccc2c1)C(=O)N[C@H](Cc1ccc2ccccc2c1)C(=O)N[C@@H](Cc1ccccc1)C(=O)N[C@@H](CCCCN)C(N)=O [(ahx) b b F K amide] (H-[Ahx][d2Nal][d2Nal]FK-NH2)		250	
NC(=O)[C@@H]1Cc2ccccc2CN1C(=O)[C@@H](Cc1ccc2ccccc2c1)NC(=O)[C@@H](Cc1ccc2ccccc2c1)NC(=O)C1CCNCC1 [(inip) b b (Tic) amide] (H-[Inp][d2Nal][d2Nal][Tic]-NH2)			RAT IV ED50 (growth hormone secretion; Table IV): 10 µg
CN(C)C(=O)C(Cc1ccccc1)NC(=O)[C@@H](Cc1ccc2ccccc2c1)NC(=O)[C@@H](Cc1ccc2ccccc2c1)NC(=O)C1CCNCC1 (single isomer, unassigned) [(inip) b b f dam]	7.92		
C[C@@H](NC(=O)[C@@H](Cc1ccc2ccccc2c1)NC(=O)CCCCN)C(=O)N[C@@H](Cc1ccccc1)C(=O)N[C@@H](CCCCN)C(N)=O [(Ava) b a F K amide] (H-[Ava][d2Nal][dA]FK-NH2)	< 6.52		
NCCCC[C@H](NC(=O)[C@H](Cc1ccccc1)NC(=O)[C@@H](Cc1c[nH]c2ccccc12)NC(=O)[C@@H](Cc1ccc2ccccc2c1)NC(=O)C1CCNCC1)C(N)=O [(inip) b w F K amide] (H-[Inp][d2Nal][dW]FK-NH2)		0.070	
O=C(N[C@H](Cc1ccc2ccccc2c1)C(=O)N[C@H](Cc1ccc2ccccc2c1)C(=O)O)C1CCNCC1 [(inip) b b acid] (H-[Inp]-[d2Nal]-[d2Nal]-OH)			pEC50 (rat pituitary cells; [3]): 7.09
CN(C(=O)[C@@H](Cc1ccc2ccccc2c1)NC(=O)C1CCN(C(=O)OC(C)(C)C)CC1)[C@@H](CN)Cc1ccc2ccccc2c1 [Boc (inip) b mbm]			pEC50 (rat pituitary cells; [3]): 7.89
NC(=O)CCCNC(=O)[C@@H](Cc1ccc2ccccc2c1)NC(=O)[C@@H](Cc1ccc2ccccc2c1)NC(=O)C1CCNCC1 [(inip) b b ab amide] (H-[Inp][d2Nal][d2Nal][GABA]-NH2; N-terminus assumed)			RAT IV ED50 (growth hormone secretion; Table IV): 10 µg
CN(C)C(=O)[C@H](Cc1ccccc1)NC(=O)[C@@H](Cc1ccc2ccccc2c1)NC(=O)[C@@H](Cc1ccc2ccccc2c1)N(C)C(=O)C1CCNCC1 [(inip) nmb b F dam] (H-[Inp][dNMe2Nal][d2Nal]F-NMe2)	8.22		
NCCCC[C@H](NC(=O)[C@H](Cc1ccccc1)NC(=O)[C@@H](Cc1ccc2ccccc2c1)NC(=O)[C@@H](Cc1ccc2ccccc2c1)NC(=O)Cc1ccncc1)C(N)=O [(pac) b b F K amide] ({Acetyl(4-pyridyl)}-[d2Nal][d2Nal]FK-NH2)	7.00		
O=C(N[C@H](Cc1ccc2ccccc2c1)C(=O)N[C@H](CO)Cc1ccc2ccccc2c1)C1CCNCC1 [(inip) b Bol]			pEC50 (rat pituitary cells; [3]): 7.00
